Experimental findings from patent US8754226B2, “Piperidinyl-substituted lactams as GPR119 modulators” (Array BioPharma Inc., priority 2010, dated 2014) are described below.

The structures appear in SMILES notation.

This assay deals with modified version of the GPR119 receptor (94% identity to human receptor). The assay is described as follows: cAMP production assay (LANCE cAMP kit, TR-FRET) in HEK-293 cells. Format: cell-based. The settings on record: for cAMP production in HEK-293 cells: HEK-293 cells stably expressing modified GPR119, test compounds 0.2 nM to 10 μM, one-hour incubation at ambient temperature; for Fold over baseline: increase in cAMP relative to basal levels, agonist activity if 1.5-fold or greater. The protocol:
The assay utilized HEK-293 cells that stably express a modified version of the GPR119 receptor (94% identity to human receptor), under the control of a CMV promoter containing a tet-on element for tetracycline-inducible expression. GPR119 agonist-induced cyclic AMP (cAMP) production was measured in this cell line using the LANCE cAMP kit (Perkin Elmer, Waltham, Mass.). To generate a working stock of cells for the assay, cells were treated overnight with 1 μg/mL doxycycline at 37° C. in the presence of 5% CO2 to induce receptor expression. Cells were then harvested by enzymatic dissociation with 0.05% trypsin, resuspended in freezing medium (DMEM growth medium with 10% each of fetal bovine serum and DMSO), aliquoted and frozen at −80° C. On the day of the assay, frozen cells were thawed, washed 1× in PBS and resuspended in Hank's buffered salt solution (HBSS) containing 5 mM HEPES, 0.1% BSA and Alexa Fluor 647-conjugated anti-cAMP antibody (diluted 1:100). The cell suspension was then transferred to a Proxiplate Plus white 384-well assay plate (Perkin-Elmer) at 2000 cells/well. Test compounds at final concentrations ranging from 0.2 nM to 10 μM were added to the assay plate, followed by a one-hour incubation at ambient temperature (volume=10 μL/well). DMSO concentration was held constant at 0.5%. After incubation with test compounds, 10 μL of a detergent buffer containing a biotinylated cAMP/Europium-conjugated streptavidin complex (Europium-labeled cAMP tracer) were added to each well on the assay plate, followed by a 2-hour incubation at ambient temperature. During this incubation cAMP released from lysed cells competes with the Europium-labeled cAMP tracer for binding to the Alexa Fluor 647-conjugated antibody. […] Cellular cAMP levels were then determined by interpolation of raw signal data using a cAMP standard curve. Compounds were determined to have agonist activity if they stimulated a 1.5-fold or greater increase in cAMP relative to basal levels.
Background: cAMP levels reflect the balance of adenylyl cyclase and phosphodiesterase activity.

With `O=C1C(Oc2ccc(-n3cnnn3)nc2)CCN1C1CCN(c2cnc(Cl)cn2)CC1` (centres unmarked) [Example 67, 3-(6-(1H-tetrazol-1-yl)pyridin-3-yloxy)-1-(1-(5-chloropyrazin-2-yl)piperidin-4-yl)pyrrolidin-2-one], the “cAMP production in HEK-293 cells” value was 15.6 nmol and the Fold over baseline is on record as 2.9.

Consider `CS(=O)(=O)c1ccc(O[C@H]2CCN(C3CCN(c4ncc(C(F)(F)F)cc4Cl)CC3)C2=O)cn1` [Example 143, (S)-1-(1-(3-chloro-5-(trifluoromethyl)pyridin-2-yl)piperidin-4-yl)-3-(6-(methylsulfonyl)pyridin-3-yloxy) pyrrolidin-2-one], for which the “cAMP production in HEK-293 cells” value worked out at 13.3 nmol and the Fold over baseline worked out at 4.3.

`CCc1cnc(N2CCC(N3CC[C@H](Oc4cc(C)c(Br)cc4F)C3=O)CC2)nc1` [Example 97, (S)-3-(4-bromo-2-fluoro-5-methylphenoxy)-1-(1-(5-ethylpyrimidin-2-yl)piperidin-4-yl)pyrrolidin-2-one]: the “cAMP production in HEK-293 cells” value turned out to be 15.3 nmol and the Fold over baseline is listed as 2.2.

As for `CS(=O)(=O)c1ccc(N[C@H]2CCN(C3CCN(c4ncc(Cl)cc4C#N)CC3)C2=O)c(F)c1` [Example 116, (S)-5-chloro-2-(4-(3-(2-fluoro-4-(methylsulfonyl)phenyl-amino)-2-oxopyrrolidin-1-yl)piperidin-1-yl)nicotinonitrile], the “cAMP production in HEK-293 cells” value was found to be 10.2 nmol and the Fold over baseline came to 2.1.

For `CCc1cnc(N2CCC(N3CC[C@H](Oc4cc(C)c(S(C)(=O)=O)cc4F)C3=O)CC2)nc1` [Example 96, (S)-1-(1-(5-ethylpyrimidin-2-yl)piperidin-4-yl)-3-(2-fluoro-5-methyl-4-(methylsulfonyl)phenoxy)pyrrolidin-2-one], the “cAMP production in HEK-293 cells” value is 31.7 nmol and the Fold over baseline is recorded as 3.5.

As to `O=C(c1ccc(O[C@H]2CCN(C3CCN(c4ncc(Cl)cc4F)CC3)C2=O)cn1)N1CCCC1` [Example 148, (S)-1-(1-(5-chloro-3-fluoropyridin-2-yl)piperidin-4-yl)-3-(6-(pyrrolidine-1-carbonyl)pyridin-3-yloxy)pyrrolidin-2-one], the “cAMP production in HEK-293 cells” value turned out to be 14.4 nmol and the Fold over baseline was found to be 2.4.

Turning to `O=C1[C@@H](Nc2ncc(C(F)(F)F)cc2Cl)CCCN1C1CCN(c2cnc(Cl)cn2)CC1` [Example 75, (S)-3-(3-chloro-5-(trifluoromethyl)pyridin-2-ylamino)-1′-(5-chloropyrazin-2-yl)-[1,4′-bipiperidin]-2-one], the “cAMP production in HEK-293 cells” value came to 9.1 nmol and the Fold over baseline is given as 2.5.

In the case of `CS(=O)(=O)c1ccc(N[C@H]2CCN(C3CCN(c4cnccn4)CC3)C2=O)c(F)c1` [Example 106, (S)-3-(2-fluoro-4-(methylsulfonyl)phenyl-amino)-1-(1-(pyrazin-2-yl)piperidin-4-yl)pyrrolidin-2-one], the “cAMP production in HEK-293 cells” value was found to be 17.8 nmol and the Fold over baseline is given as 3.0.

Take `CCc1cnc(N2CCC(N3CC[C@H](Nc4ccc(S(C)(=O)=O)cc4F)C3=O)CC2)nc1` [Example 19, (S)-1-(1-(5-ethylpyrimidin-2-yl)piperidin-4-yl)-3-(2-fluoro-4 (methylsulfonyl)phenylamino) pyrrolidin-2-one]: the “cAMP production in HEK-293 cells” value is 9.9 nmol and the Fold over baseline is 2.1.

As for `CS(=O)(=O)c1cc(F)c(N[C@H]2CCCN(C3CCN(c4ccc(Cl)nn4)CC3)C2=O)cc1F` [Example 52, (S)-1′-(6-chloropyridazin-3-yl)-3-(2,5-difluoro-4-(methylsulfonyl)phenylamino)-[1,4′-bipiperidin]-2-one], the “cAMP production in HEK-293 cells” value was found to be 19.6 nmol and the Fold over baseline is given as 4.6.
